Results from patent publication US7807383B2, “Diagnosing and treating hormone resistant cancers” (Board of Regents, The University of Texas System, priority 2007, dated 2010).

Target: T1, DBC-1/ERα interaction (Homo sapiens, UniProt P03372)
T1 sequence (P03372 1-595): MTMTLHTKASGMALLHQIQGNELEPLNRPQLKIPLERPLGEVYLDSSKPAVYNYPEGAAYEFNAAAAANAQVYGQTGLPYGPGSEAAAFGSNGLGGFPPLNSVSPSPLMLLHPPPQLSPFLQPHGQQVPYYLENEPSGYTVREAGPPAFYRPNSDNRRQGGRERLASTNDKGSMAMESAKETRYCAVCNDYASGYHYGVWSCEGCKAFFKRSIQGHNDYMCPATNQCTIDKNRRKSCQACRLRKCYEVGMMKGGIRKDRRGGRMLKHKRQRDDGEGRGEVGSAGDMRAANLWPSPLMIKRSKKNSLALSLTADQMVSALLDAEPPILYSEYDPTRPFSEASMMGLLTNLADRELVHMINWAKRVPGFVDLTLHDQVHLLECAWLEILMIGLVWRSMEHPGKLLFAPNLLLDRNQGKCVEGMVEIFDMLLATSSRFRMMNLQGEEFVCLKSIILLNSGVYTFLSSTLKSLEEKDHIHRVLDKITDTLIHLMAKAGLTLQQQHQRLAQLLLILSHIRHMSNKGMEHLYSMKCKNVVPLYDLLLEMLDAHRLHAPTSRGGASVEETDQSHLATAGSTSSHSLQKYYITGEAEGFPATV
Details: MCF-7 and BG-1 cells, hormone-free medium; E2 10^−7 M, 4-OHT 10^−6 M, ICI 10^−7 M; one hour
Excerpt: Results are representative of at least three independent experiments.

effect on DBC-1/ERα interaction (co-immunoprecipitation): disrupted the DBC-1/ERα interaction
Structure (SMILES): C[C@]12CC[C@@H]3c4ccc(O)cc4C[C@@H](CCCCCCCCC[S+]([O-])CCCC(F)(F)C(F)(F)F)[C@H]3[C@@H]1CC[C@@H]2O (stereo partly shown) [ICI 182,780]
